# In paper PMC6542772, “Plant Cytosolic Ascorbate Peroxidase with Dual Catalytic Activity Modulates Abiotic Stress Tolerances” (iScience, 2019):
# Tests used:
# Type in all cases: biochemical
# [1] = target: T1, CytAPX1 from O. sativa (Os) (Oryza sativa, UniProt Q10N21); test: APX activity assay, in-gel and in solution; details: H2O2 co-substrate
# T1 construct: gene APX1; recombinant from E. coli, purified
# T1 sequence (Q10N21 2-250): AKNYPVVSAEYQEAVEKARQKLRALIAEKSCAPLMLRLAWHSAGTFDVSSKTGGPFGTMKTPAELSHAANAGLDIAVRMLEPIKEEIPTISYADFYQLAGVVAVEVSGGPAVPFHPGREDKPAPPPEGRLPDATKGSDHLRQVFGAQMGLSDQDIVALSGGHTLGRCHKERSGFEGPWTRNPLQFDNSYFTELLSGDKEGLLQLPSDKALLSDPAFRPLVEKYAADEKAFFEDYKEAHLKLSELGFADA
# CytAPX1 from G. max (Gm) = target: T2, CytAPX1 from G. max (Gm) (Glycine max, UniProt Q43758); test: APX activity assay, in-gel and in solution; details: H2O2 co-substrate
# T2 construct: gene apx1; recombinant from E. coli, purified
# T2 sequence (Q43758 1-250): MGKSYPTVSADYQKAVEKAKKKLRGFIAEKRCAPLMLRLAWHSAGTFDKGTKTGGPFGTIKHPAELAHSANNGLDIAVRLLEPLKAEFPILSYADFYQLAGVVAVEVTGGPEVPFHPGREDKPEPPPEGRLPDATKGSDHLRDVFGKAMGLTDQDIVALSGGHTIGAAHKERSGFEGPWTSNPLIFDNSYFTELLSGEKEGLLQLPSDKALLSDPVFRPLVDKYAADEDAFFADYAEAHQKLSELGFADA
# AtCytAPX1 = target: T3, AtCytAPX1 (Arabidopsis thaliana, UniProt Q05431); test: APX activity assay, in-gel and in solution; details: H2O2 co-substrate
# T3 construct: gene APX1; ~27 kDa; MBP fusion from E. coli, MBP removed by factor Xa
# T3 sequence (Q05431 1-250): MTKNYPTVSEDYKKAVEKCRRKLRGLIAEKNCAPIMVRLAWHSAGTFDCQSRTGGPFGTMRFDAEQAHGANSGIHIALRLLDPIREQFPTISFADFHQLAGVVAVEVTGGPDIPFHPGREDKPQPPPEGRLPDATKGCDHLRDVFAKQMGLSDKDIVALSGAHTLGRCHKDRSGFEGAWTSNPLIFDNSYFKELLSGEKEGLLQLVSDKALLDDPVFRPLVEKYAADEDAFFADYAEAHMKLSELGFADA
# [2] = target: T4, OgCytAPX1 (Oncidium cytosolic ascorbate peroxidase 1) (Oncidium hybrid cultivar, UniProt B8XF08); test: enzyme kinetics, Lineweaver-Burk; details: H2O2 co-substrate; APX activity
# T4 construct: full length, 250 residues, ~27 kDa; cloned from pseudobulb mRNA; MBP fusion (pMAL-c5x) from E. coli BL21, MBP removed by factor Xa
# T4 sequence (B8XF08 entry or part of it): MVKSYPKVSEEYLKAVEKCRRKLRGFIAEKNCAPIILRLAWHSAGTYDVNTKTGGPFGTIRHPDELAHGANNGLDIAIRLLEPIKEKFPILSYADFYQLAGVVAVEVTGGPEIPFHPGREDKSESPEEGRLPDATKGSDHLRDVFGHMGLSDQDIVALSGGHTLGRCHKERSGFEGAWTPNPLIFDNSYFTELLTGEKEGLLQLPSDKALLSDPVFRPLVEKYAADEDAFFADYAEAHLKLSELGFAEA
smiles,measurement,setting,value
O=C1O[C@H]([C@@H](O)CO)C(O)=C1O [AsA],"APX activity assay, in-gel and in solution",[1],"Recombinant proteins from G. max, O. sativa, and Z. mays displayed both AsA and GSH"
same,"APX activity assay, in-gel and in solution",CytAPX1 from G. max (Gm),"Recombinant proteins from G. max, O. sativa, and Z. mays displayed both AsA and GSH"
same,"APX activity assay, in-gel and in solution",AtCytAPX1,AtCytAPX1 displayed only APX activity
same,Km,[2],616 µM
